Molecules are shown by their SMILES. ≈ marks a conversion by molar mass, not a printed value.

We go through 14 compounds from ChEMBL document CHEMBL3232809, “Synthesis, antibiotic activity and structure-activity relationship study of some 3-enaminetetramic acids” (2014).

What all share (type): functional
Assay [1] has as its system Staphylococcus aureus. In words: Antimicrobial activity against methicillin-resistant Staphylococcus aureus.
For assay [2], the system named is Streptococcus pneumoniae. In words: Antimicrobial activity against penicillin- and erythromycin-resistant Streptococcus pneumoniae in presence of 2.5% horse blood.
The subject of assay [3] is Staphylococcus aureus. In words: Antimicrobial activity against vancomycin-susceptible Staphylococcus aureus ATCC 25923.
The next assay concerns Enterococcus faecium. In words: Antimicrobial activity against vancomycin-resistant Enterococcus faecium.
For assay [4], the system named is Haemophilus influenzae. In words: Antimicrobial activity against Haemophilus influenzae ATCC 31517 MMSA.
A further assay has as its system Pseudomonas aeruginosa. In words: Antimicrobial activity against Pseudomonas aeruginosa ATCC 27853.
The subject of the next assay is Enterococcus faecalis. In words: Antimicrobial activity against vancomycin-susceptible Enterococcus faecalis ATCC 29212.
Assay [5] relates to Streptococcus pneumoniae. In words: Antimicrobial activity against penicillin- and erythromycin-resistant Streptococcus pneumoniae.
Assay [6] has as its system Streptococcus pneumoniae. In words: Antimicrobial activity against erythromycin-susceptible Streptococcus pneumoniae ATCC 49619.
Assay [7] has as its system Escherichia coli. In words: Antimicrobial activity against Escherichia coli 50.
Assay [8] concerns Haemophilus influenzae. In words: Antimicrobial activity against LS2 Efflux knock-out Haemophilus influenzae.
The subject of assay [9] is Escherichia coli. In words: Antimicrobial activity against Escherichia coli ATCC 25922.
In assay [10] the test system is Escherichia coli. In words: Antimicrobial activity against Escherichia coli 49.
For assay [11], the system named is Staphylococcus aureus. In words: Antimicrobial activity against Staphylococcus aureus Oxford.
Assay [12] has as its system Staphylococcus aureus. In words: Antimicrobial activity against methicillin-sensitive Staphylococcus aureus ATCC 13709.

Take `CCCCCCC(=O)N1CC(=O)/C(=C(\CCCCCC)NC2CCCCC2)C1=O`: the MIC against Staphylococcus aureus [1], with Streptococcus pneumoniae [2], against Staphylococcus aureus [3], in the assay on Enterococcus faecium, against Haemophilus influenzae [4] and against Pseudomonas aeruginosa was more than 32 µg/mL throughout. Further, the MIC against Enterococcus faecalis, against Streptococcus pneumoniae [5], in the assay on Streptococcus pneumoniae [6], in the assay on Escherichia coli [7], with Haemophilus influenzae [8] and in the assay with Escherichia coli [9] was more than 32 µg/mL each time. In addition, the MIC with Escherichia coli [10], in the assay with Staphylococcus aureus [11] and in the assay with Staphylococcus aureus [12] was more than 32 µg/mL throughout.

Regarding `CSCCC1C(=O)/C(=C(\CC23CC4CC(CC(C4)C2)C3)NCC(C)(C)CN(C)C)C(=O)N1C(C)=O` (stereo not given), the MIC against Staphylococcus aureus [1], in the assay on Streptococcus pneumoniae [2], with Staphylococcus aureus [3], with Enterococcus faecium, against Haemophilus influenzae [4] and with Pseudomonas aeruginosa was more than 32 µg/mL in each case. For the same compound, the MIC against Enterococcus faecalis, against Streptococcus pneumoniae [5], with Streptococcus pneumoniae [6], in the assay on Escherichia coli [7], with Haemophilus influenzae [8] and in the assay on Escherichia coli [9] was more than 32 µg/mL in each case. In addition, the MIC in the assay on Escherichia coli [10], in the assay with Staphylococcus aureus [11] and in the assay on Staphylococcus aureus [12] was more than 32 µg/mL each time.

Consider `CCCCCCCCCC/C(NCCCOC(C)C)=C1\C(=O)C(CCSC)N(C(C)=O)C1=O` (stereo not given), for which the MIC in the assay on Staphylococcus aureus [1], in the assay on Streptococcus pneumoniae [2], with Staphylococcus aureus [3], in the assay with Enterococcus faecium, in the assay on Haemophilus influenzae [4] and with Pseudomonas aeruginosa was more than 32 µg/mL in each case. Besides, the MIC against Enterococcus faecalis, against Streptococcus pneumoniae [5], against Streptococcus pneumoniae [6], in the assay on Escherichia coli [7], in the assay with Haemophilus influenzae [8] and with Escherichia coli [9] was more than 32 µg/mL in each case. Also, the MIC against Escherichia coli [10], against Staphylococcus aureus [11] and against Staphylococcus aureus [12] was more than 32 µg/mL throughout.

`CCN(CC)CCCC(C)N/C(CCCOc1ccccc1)=C1/C(=O)C(CC(C)C)N(C(=O)c2ccccc2)C1=O` (stereo not given): the MIC with Staphylococcus aureus [1], in the assay on Streptococcus pneumoniae [2], against Staphylococcus aureus [3], against Enterococcus faecium, in the assay on Haemophilus influenzae [4] and in the assay on Pseudomonas aeruginosa was more than 32 µg/mL each time. Also, the MIC in the assay with Enterococcus faecalis, in the assay with Streptococcus pneumoniae [5], with Streptococcus pneumoniae [6], in the assay with Escherichia coli [7], with Haemophilus influenzae [8] and against Escherichia coli [9] was more than 32 µg/mL each time. Further, the MIC against Escherichia coli [10], against Staphylococcus aureus [11] and against Staphylococcus aureus [12] was more than 32 µg/mL in each case.

For `CC(C)(C)[C@H]1OC[C@@H]2C(=O)/C(=C(/NCCCCN)c3ccccc3)C(=O)N21`, the MIC in the assay on Staphylococcus aureus [1], in the assay on Streptococcus pneumoniae [2], with Staphylococcus aureus [3], in the assay on Enterococcus faecium, against Haemophilus influenzae [4] and with Pseudomonas aeruginosa was more than 32 µg/mL in each case. Besides, the MIC in the assay on Enterococcus faecalis, in the assay on Streptococcus pneumoniae [5], against Streptococcus pneumoniae [6], against Escherichia coli [7], against Haemophilus influenzae [8] and in the assay on Escherichia coli [9] was more than 32 µg/mL in each case. Further, the MIC in the assay with Escherichia coli [10], against Staphylococcus aureus [11] and against Staphylococcus aureus [12] was more than 32 µg/mL each time.

For `CC1CCCCN1CCCN/C(CC12CC3CC(C)(CC(C)(C3)C1)C2)=C1/C(=O)[C@@H]2CCCC(=O)N2C1=O` (stereo not given in full), the MIC with Staphylococcus aureus [1], in the assay with Streptococcus pneumoniae [2], against Staphylococcus aureus [3], in the assay with Enterococcus faecium, against Haemophilus influenzae [4] and with Pseudomonas aeruginosa was more than 32 µg/mL throughout. Moreover, the MIC with Enterococcus faecalis, in the assay with Streptococcus pneumoniae [5], in the assay with Streptococcus pneumoniae [6], with Escherichia coli [7], against Haemophilus influenzae [8] and in the assay with Escherichia coli [9] was more than 32 µg/mL throughout. Further, the MIC in the assay on Escherichia coli [10], in the assay on Staphylococcus aureus [11] and in the assay on Staphylococcus aureus [12] was more than 32 µg/mL in each case.

Consider `CCCCCC/C(=C1/C(=O)N2[C@@H](C(C)(C)C)OC[C@]2(C(=O)OC)C1=O)N1CCCCC1`, for which the MIC with Staphylococcus aureus [1], with Streptococcus pneumoniae [2], in the assay on Staphylococcus aureus [3], against Enterococcus faecium, against Haemophilus influenzae [4] and against Pseudomonas aeruginosa was more than 32 µg/mL each time. Moreover, the MIC in the assay with Enterococcus faecalis, against Streptococcus pneumoniae [5], against Streptococcus pneumoniae [6], in the assay with Escherichia coli [7], against Haemophilus influenzae [8] and against Escherichia coli [9] was more than 32 µg/mL in each case. Besides, the MIC against Escherichia coli [10], against Staphylococcus aureus [11] and in the assay on Staphylococcus aureus [12] was more than 32 µg/mL each time.

For the compound `CCOC(=O)[C@]12CO[C@H](C(C)(C)C)N1C(=O)/C(=C(/CC13CC4CC(C)(CC(C)(C4)C1)C3)NC(C)CCCN(CC)CC)C2=O` (stereo not given in full), the MIC in the assay with Staphylococcus aureus [1], in the assay with Streptococcus pneumoniae [2], with Staphylococcus aureus [3], with Enterococcus faecium, in the assay with Haemophilus influenzae [4] and in the assay with Pseudomonas aeruginosa was more than 32 µg/mL in each case. The MIC against Enterococcus faecalis, in the assay with Streptococcus pneumoniae [5], in the assay on Streptococcus pneumoniae [6], in the assay on Escherichia coli [7], against Haemophilus influenzae [8] and against Escherichia coli [9] was more than 32 µg/mL in each case. The MIC with Escherichia coli [10], against Staphylococcus aureus [11] and against Staphylococcus aureus [12] was more than 32 µg/mL throughout.

Take `CCOC(=O)[C@]12CO[C@H](C(C)(C)C)N1C(=O)/C(=C(/CC13CC4CC(CC(C4)C1)C3)NCC(C)(C)CN(C)C)C2=O`: the MIC with Staphylococcus aureus [1], in the assay with Streptococcus pneumoniae [2], against Staphylococcus aureus [3], against Enterococcus faecium, with Haemophilus influenzae [4] and against Pseudomonas aeruginosa was more than 32 µg/mL each time. Moreover, the MIC with Enterococcus faecalis, against Streptococcus pneumoniae [5], in the assay on Streptococcus pneumoniae [6], against Escherichia coli [7], with Haemophilus influenzae [8] and in the assay on Escherichia coli [9] was more than 32 µg/mL in each case. Besides, the MIC against Escherichia coli [10], in the assay on Staphylococcus aureus [11] and with Staphylococcus aureus [12] was more than 32 µg/mL throughout.

With `COC(=O)[C@]12CO[C@H](C(C)(C)C)N1C(=O)/C(=C(/CCCOc1ccccc1)NCCCOC(C)C)C2=O`, the MIC with Staphylococcus aureus [1], in the assay with Streptococcus pneumoniae [2], in the assay on Staphylococcus aureus [3], in the assay with Enterococcus faecium, in the assay on Haemophilus influenzae [4] and with Pseudomonas aeruginosa was more than 32 µg/mL in each case. For the same compound, the MIC against Enterococcus faecalis, in the assay on Streptococcus pneumoniae [5], against Streptococcus pneumoniae [6], against Escherichia coli [7], in the assay with Haemophilus influenzae [8] and in the assay with Escherichia coli [9] was more than 32 µg/mL throughout. Moreover, the MIC against Escherichia coli [10], against Staphylococcus aureus [11] and in the assay on Staphylococcus aureus [12] was more than 32 µg/mL throughout.

With `COC(=O)[C@]12CO[C@H](C(C)(C)C)N1C(=O)/C(=C(/CCCOc1ccccc1)NCCN1CCCCC1)C2=O`, the MIC against Staphylococcus aureus [1], in the assay with Streptococcus pneumoniae [2], against Staphylococcus aureus [3], in the assay on Enterococcus faecium, in the assay on Haemophilus influenzae [4] and with Pseudomonas aeruginosa was more than 32 µg/mL each time. Further, the MIC in the assay with Enterococcus faecalis, in the assay on Streptococcus pneumoniae [5], in the assay with Streptococcus pneumoniae [6], in the assay with Escherichia coli [7], against Haemophilus influenzae [8] and in the assay with Escherichia coli [9] was more than 32 µg/mL in each case. Also, the MIC in the assay on Escherichia coli [10], against Staphylococcus aureus [11] and in the assay on Staphylococcus aureus [12] was more than 32 µg/mL each time.

`C/C(NC12CC3CC(CC(C3)C1)C2)=C1\C(=O)N2[C@H](C(C)(C)C)OC[C@@]2(C)C1=O` (mixture of isomers): the MIC with Staphylococcus aureus [1] was more than 64 µg/mL; in the assay with Streptococcus pneumoniae [2], more than 64 µg/mL; in the assay on Staphylococcus aureus [3] it was more than 64 µg/mL; against Enterococcus faecium, more than 64 µg/mL; against Haemophilus influenzae [4] it was more than 64 µg/mL; in the assay on Pseudomonas aeruginosa, more than 32 µg/mL. The MIC against Enterococcus faecalis was more than 64 µg/mL; in the assay with Streptococcus pneumoniae [5] it was more than 64 µg/mL; with Streptococcus pneumoniae [6] it was more than 64 µg/mL; against Escherichia coli [7], more than 32 µg/mL; against Haemophilus influenzae [8], 16 µg/mL; against Escherichia coli [9], more than 32 µg/mL. Moreover, the MIC against Escherichia coli [10] is more than 32 µg/mL; against Staphylococcus aureus [11], more than 64 µg/mL; against Staphylococcus aureus [12], more than 64 µg/mL.

With `C/C(NCCOc1ccccc1)=C1\C(=O)N2[C@H](C(C)(C)C)OC[C@@]2(C)C1=O` (racemic), the MIC was 8 µg/mL (≈ 21.5 µM) in the assay on Staphylococcus aureus [1]; 2 µg/mL with Streptococcus pneumoniae [2]; 4 µg/mL (≈ 10.7 µM) against Staphylococcus aureus [3]; 1 µg/mL (≈ 2.68 µM) against Enterococcus faecium; 4 µg/mL (≈ 10.7 µM) in the assay with Haemophilus influenzae [4]; more than 32 µg/mL against Pseudomonas aeruginosa. In addition, the MIC is 4 µg/mL (≈ 10.7 µM) against Enterococcus faecalis; 1 µg/mL (≈ 2.68 µM) in the assay on Streptococcus pneumoniae [5]; 1 µg/mL (≈ 2.68 µM) in the assay on Streptococcus pneumoniae [6]; more than 32 µg/mL against Escherichia coli [7]; less than 0.06 µg/mL in the assay with Haemophilus influenzae [8]; more than 32 µg/mL in the assay on Escherichia coli [9]. The MIC is more than 32 µg/mL in the assay with Escherichia coli [10], 8 µg/mL (≈ 21.5 µM) in the assay with Staphylococcus aureus [11] and 8 µg/mL (≈ 21.5 µM) against Staphylococcus aureus [12].

`C/C(Nc1ccccc1)=C1\C(=O)N2[C@H](C(C)(C)C)OC[C@@]2(C)C1=O` (racemic): the MIC against Staphylococcus aureus [1] was 64 µg/mL (≈ 195 µM); with Streptococcus pneumoniae [2], 8 µg/mL; in the assay on Staphylococcus aureus [3] it was 64 µg/mL (≈ 195 µM); in the assay with Enterococcus faecium it was 32 µg/mL (≈ 97.4 µM); in the assay with Haemophilus influenzae [4], more than 64 µg/mL; against Pseudomonas aeruginosa, more than 32 µg/mL. For the same compound, the MIC was 64 µg/mL (≈ 195 µM) against Enterococcus faecalis; 8 µg/mL (≈ 24.4 µM) in the assay on Streptococcus pneumoniae [5]; 8 µg/mL (≈ 24.4 µM) against Streptococcus pneumoniae [6]; more than 32 µg/mL against Escherichia coli [7]; 8 µg/mL (≈ 24.4 µM) with Haemophilus influenzae [8]; more than 32 µg/mL with Escherichia coli [9]. Further, the MIC was more than 32 µg/mL against Escherichia coli [10], 64 µg/mL (≈ 195 µM) against Staphylococcus aureus [11] and 64 µg/mL (≈ 195 µM) in the assay on Staphylococcus aureus [12].
